Assay results from patent publication US20230129485A1, “SYSTEM AND METHOD FOR DETERMINING MATERIAL PROPERTIES OF MOLECULAR SYSTEMS FROM AN AB-INITIO PARAMETERIZED FORCE-FIELD” (InterX, Inc., priority 2021, published 2023).
Like-named read-outs stand apart in the source and are kept apart here.

Legend:
[1] = Free energy of hydration predicted by polarizable AMOEBA force field, from literature; details: Table 5; error of AMOEBA hydration free energy vs experiment
[2] = Free energy of hydration by Polarizable Continuum Model (PCM); details: absolute error vs Exp (hydration)
Summary of the method: (§1)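 Hydration energies come from continuum solvent models. Those for COSMO were computed with MolPro. SMD and PCM results were received, and the SMD, PCM and COSMO-RS sets each cover just the molecules in common with the QM-parameterized force-field calculations.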

[3] = experimental, cited from earlier work; for Exp (hydration): Table 5
[4] = Free energy of hydration by COSMO-RS
Summary of the method: as §1

[5] = experimental, cited from earlier work
[6] = Free energy of hydration by Free Energy Machine Learning Model (FML); details: absolute error vs Exp (hydration)
Text: Machine learning models can be used for free energy determination.

[7] = Table 5; free energy of hydration, AMOEBA prediction taken from literature; cited from earlier work
[8] = Free energy of hydration predicted with the QM-parameterized force field model (ARROW FF), classical MD and PIMD simulation in a water box; details: for Arrow error: Table 5, error of Arrow PIMD8 hydration free energy vs experiment; for Arrow PIMD8 Error: absolute error vs Exp (hydration)
Summary of the method: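 Solute decoupled from solvent in a 32×32×32 Å3 water box (PME, 9 Å cutoffs), electrostatics, exchange-repulsion and dispersion switched off together over 15 lambda points with soft-coring. Steepest-descent minimization, 50 ps equilibration, 1 ns NPT production at 1 atm; classical and path-integral MD. Free energy from BAR and TI.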

[9] = Free energy of hydration by Solvation Model Dielectric (SMD) implicit solvent model; details: absolute error vs Exp (hydration)
Summary of the method: as §1

[10] = Table 5; free energy of hydration, GAFF prediction taken from literature; cited from earlier work
[11] = implicit solvent model, values received; cited from earlier work
[12] = implicit solvent model, values received; cited from earlier work; remark: listed apart in the source
[13] = Free energy of hydration predicted by General Amber Force Field (GAFF), from literature; details: Table 5; error of GAFF hydration free energy vs experiment
[14] = Free energy of hydration by COSMO implicit solvent model (MolPro ver. 2012); details: absolute error vs Exp (hydration)
Summary of the method: as §1

[15] = Free energy of solvation in cyclohexane predicted with the QM-parameterized force field model (ARROW FF), MD and PIMD; details: Table 4; for CHEX Arrow MD Error: error of MD cyclohexane solvation free energy vs experiment; for CHEX Arrow PIMD4 Error: error of PIMD4 cyclohexane solvation free energy vs experiment
Summary of the method: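 Solute–cyclohexane interactions decoupled over 15 λ points with soft-core scaling, in MD and path-integral simulations under NPT at 1 atm using PME electrostatics and 9 Å cutoffs. Each window had 50 ps equilibration and 1 ns production; free energies from BAR and TI.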

[16] = CHEX/H2O partition coefficient (log D) predicted with the QM-parameterized force field model (ARROW FF)
Summary of the method: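 Cyclohexane/water partition coefficients were predicted by molecular simulation with a QM-parameterized force field, with bonded force constants and equilibrium values fitted to MP2/aug-cc-pVTZ energies. Solutes carried neutral functional groups, and results from four independent groups were averaged.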

[17] = CHEX/H2O partition coefficient, experimental, cited from earlier work
[18] = Table 3, free energy of hydration
[19] = Table 3, free energy of solvation in cyclohexane
[20] = Table 3, absolute error of MD hydration free energy vs experiment
[21] = Table 3, absolute error of PIMD8 hydration free energy vs experiment
[22] = Table 4, neutral amino-acid analogues
[23] = Table 4, solvation free energy in cyclohexane
[24] = Table 4, error of MD hydration free energy vs experiment
[25] = Table 4, error of PIMD8 hydration free energy vs experiment

SMILES | AMOEBA error [1] [kcal/mol] | PCM Error [2] [kcal/mol] | water Exp (hydration) [3, 18] [kcal/mol] | Exp (hydration) ([3]; free energy of hydration) [kcal/mol] | COSMO-RS error [4] [kcal/mol] | CHEX Exp (solvation) [5, 19] [kcal/mol] | FML error [6] [kcal/mol] | AMOEBA [7] [kcal/mol] | water Arrow MD Error [8, 20] [kcal/mol] | water Arrow PIMD8 Error [8, 21] [kcal/mol] | Arrow error [8] [kcal/mol] | Arrow PIMD8 Error [8] [kcal/mol] | SMD Error [9] [kcal/mol] | GAFF [10] [kcal/mol] | PCM free energy of hydration [11] [kcal/mol] | SMD free energy of hydration [12] [kcal/mol] | GAFF error [13] [kcal/mol] | COSMO/Molpro Error [14] [kcal/mol] | also measured
CC(C)O [2-Propanol] | 0.41 | 1.52 | -4.62 | -4.62 | 0.00 | -2.37 | 0.29 | -4.21 | 1.26 | 0.00 | 0.00 | 0.00 | 0.32 | -3.28 | -3.10 | -4.30 | 1.34 |  | 
CC [Ethane] | 0.06 | 1.89 | 1.79 | 1.79 | 0.02 |  | 0.85 | 1.73 | 0.42 | 0.12 | 0.12 | 0.12 | 0.01 | 2.58 | -0.10 | 1.80 | 0.79 | 2.19 | 
CCO [Ethanol] | 0.32 | 1.91 | -5.01 | -5.01 | 0.07 | -2.59 | 0.08 | -4.69 | 0.74 | 0.07 | 0.07 | 0.07 | 0.81 | -3.45 | -3.10 | -4.20 | 1.56 | 1.19 | water Exp (hydration) [3, 22]: -5.01 kcal/mol; CHEX Arrow MD Error [15]: 0.05 kcal/mol; CHEX Arrow PIMD4 Error [15]: 0.12 kcal/mol; CHEX Exp (solvation) [5, 23]: -2.59 kcal/mol; water Arrow MD Error [8, 24]: 0.74 kcal/mol; water Arrow PIMD8 Error [8, 25]: 0.07 kcal/mol
CC(C)C [Isobutane] |  | 2.48 | 2.28 |  | 0.14 | -2.61 | 0.12 |  | 0.93 | 0.02 |  | 0.02 | 0.28 |  | -0.20 | 2.00 |  | 2.28 | water Exp (hydration) [3, 22]: 2.28 kcal/mol; CHEX Arrow MD Error [15]: 0.33 kcal/mol; CHEX Arrow PIMD4 Error [15]: 0.10 kcal/mol; CHEX Exp (solvation) [5, 23]: -2.61 kcal/mol; water Arrow MD Error [8, 24]: 0.93 kcal/mol; water Arrow PIMD8 Error [8, 25]: 0.02 kcal/mol; log D Arrow MD Error [16]: 0.44; log D Arrow PIMD Error [16]: 0.06; logD Arrow MD Error [16]: 0.44; logD Arrow PIMD Error [16]: 0.06; Exp (log D) ([17]; Table 3): 3.59; logD Exp (logD) ([17]; Table 4): 3.59
CNC(C)=O [N-Methylacetamide] | 1.34 | 3.40 | -10 | -10.00 | 0.27 |  | 1.89 | -8.66 | 1.52 | 0.49 | 0.49 | 0.49 | 1.40 | -8.39 | -6.60 | -8.60 | 1.61 | 3.10 | 
CCCCCCCCO [Octanol] | 1.44 | 0.79 | -4.09 | -4.09 | 0.18 |  | 0.02 | -2.65 | 1.40 | 0.22 | 0.22 | 0.22 | 0.69 | -5.20 | -3.30 | -3.40 | 1.11 | 2.57 | 
CCCO [Propanol] | 0.07 | 1.82 | -4.92 | -4.92 | 0.12 | -2.73 | 0.11 | -4.85 | 0.58 | 0.18 | 0.18 | 0.18 | 0.82 | -3.12 | -3.10 | -4.10 | 1.80 | 1.30 | 
c1cc[nH]c1 [Pyrrole] | 1.00 |  | -4.8 | -4.80 | 0.96 |  | 2.22 | -3.80 | 0.08 | 0.63 | 0.63 | 0.63 |  | -3.87 |  |  | 0.93 | 2.42 | 
CCC=O [propionaldehyde] | 0.35 | 0.17 |  |  | 0.26 |  | 0.05 | -3.08 | 0.30 | 0.25 | 0.45 | 0.25 | 0.33 | -3.41 |  |  | 0.02 | 4.76 | 
c1ccncc1 [pyridine] | 0.90 | 1.49 | -4.69 | -4.69 | 0.73 | -4.30 | 0.21 | -5.59 | 0.84 | 0.08 | 0.08 | 0.08 | 0.49 | -3.45 | -3.20 | -4.20 | 1.24 | 2.04 | 
